In patent publication US4103011A, “Novel penicillin compounds and process for preparation thereof” (priority 1976, dated 1978):
Converted amounts (≈) assume the structure as drawn. Counter-ions that a name gives are not always drawn. Like-named read-outs stand apart in the source and are kept apart here.

Assays:
[1] = system: Staphylococcus aureus No. 50774; assay: In vivo efficacy against systemic infection; design: species or system male mice (ddY); details: NO.50774, in Mus musculus, 336 h, sc, twice, about 5 minutes and 6 hours after infection, read-out: ED50 (median effective dose)
Procedure: (§1) The contents in the vials (No. A and No. C) prepared in Example 17 were each dissolved in deionized water, and injections having various concentrations were prepared.
Compounds A, B, F, G, H and M were dissolved in deionized water. Compounds C, D, E and J were dissolved in an aqueous solution of sodium carbonate (pH 8-9) to prepare injections of various concentrations.
Each of the injections was administered to mice under the conditions described below, and the median effective doses (ED50) obtained are shown in Table II.
(§2) Mice: male mice (ddY) weighting about 20g
Staphylococcus aureus No. 50774;
Intravenous infection with 50 to 100
LD50 (about 5 × 10^8cells/mouse) of a
bacterial suspension in saline.
(§3) twice, about 5 minutes and 6 hours after
Staphylococcus aureus No. 50774 14 days
The numerals in the table show ED50 (mg/kg). ED50 values were
(§4) calculated in accordance with the Behrens-Kaerber method [Arch. Exp. Path

[2] = system: Pseudomonas aeruginosa No. 12; assay: In vivo efficacy against systemic infection; design: species or system male mice (ddY); details: NO.12, in Mus musculus, sc, twice, about 5 minutes and 6 hours after infection, read-out: ED50 (median effective dose)
Procedure: as §1
(§5) Compounds A, B, F, G, H and M were dissolved in deionized water.
as §2
Pseudomonas aeruginosa No. 12;
(§6) Intraperitoneal infection with 50 to
(§7) of a bacterial suspension in tryptosoy
as §3
Pseudomonas aeruginosa No. 12
as §4

Escherichia coli P-5101 [3] = assay: In vivo efficacy against systemic infection; design: species or system male mice (ddY); details: P5101, in Mus musculus, 168 h, sc, twice, about 5 minutes and 6 hours after infection, read-out: ED50 (median effective dose)
Procedure: as §1, §5, §2, §6, §7, §3, §4

in vivo = details: mouse
[4] = system: Enterobacter cloacae P-2540; assay: In vitro antibacterial activity (MIC); type: cell-based; details: P2540; Enterobacter cloacae P-2540; read-out: minimum inhibitory concentration (MIC)
Description: (§8) In vitro antibacterial activity against 20 strains of bacteria
(§9) The numerals in the table show minimum inhibitory concentrations (MIC)

Proteus mirabilis P-2381 = assay: In vitro antibacterial activity (MIC); type: cell-based
Description: as §8, §9

[5] = system: Staphylococcus aureus No. 50774; assay: In vitro antibacterial activity (MIC); type: cell-based
Description: as §8, §9

Escherichia coli P-140a = assay: In vitro antibacterial activity (MIC); type: cell-based
Description: as §8, §9

[6] = system: Salmonella typhimurium S-9; assay: In vitro antibacterial activity (MIC); type: cell-based; details: Salmonella enterica; Salmonella typhimurium S-9; read-out: minimum inhibitory concentration (MIC)
Description: as §8, §9

[7] = system: Corynebacterium pyogenes C-21; assay: In vitro antibacterial activity (MIC); type: cell-based; details: Rhodococcus (subgen. Prescottella) equi, C21; Corynebacterium pyogenes C-21; read-out: minimum inhibitory concentration (MIC)
Description: as §8, §9

[8] = system: Staphylococcus aureus 209P JC-1; assay: In vitro antibacterial activity (MIC); type: cell-based; details: read-out: minimum inhibitory concentration (MIC)
Description: as §8, §9

[9] = system: Shigella flexneri 4a P-330; assay: In vitro antibacterial activity (MIC); type: cell-based; details: 4AP330, read-out: minimum inhibitory concentration (MIC)
Description: as §8, §9

Proteus rettgeri P-2503 = assay: In vitro antibacterial activity (MIC); type: cell-based; details: Providencia rettgeri
Description: as §8, §9

Escherichia coli P-5101 [10] = assay: In vitro antibacterial activity (MIC); type: cell-based
Description: as §8, §9

[11] = system: Escherichia coli NIHJ JC-2; assay: In vitro antibacterial activity (MIC); type: cell-based
Description: as §8, §9

[12] = system: Streptococcus faecalis P-2473; assay: In vitro antibacterial activity (MIC); type: cell-based; details: Enterococcus faecalis
Description: as §8, §9

[13] = system: Salmonella enteritidis No. 1891; assay: In vitro antibacterial activity (MIC); type: cell-based; details: Salmonella enterica; Salmonella enteritidis No. 1891; read-out: minimum inhibitory concentration (MIC)
Description: as §8, §9

[14] = system: Pseudomonas aeruginosa No.12; assay: In vitro antibacterial activity (MIC); type: cell-based
Description: as §8, §9

Proteus morganii Kono = assay: In vitro antibacterial activity (MIC); type: cell-based; details: Morganella morganii, read-out: minimum inhibitory concentration (MIC)
Description: as §8, §9

Shigella flexneri 2a = assay: In vitro antibacterial activity (MIC); type: cell-based; details: read-out: minimum inhibitory concentration (MIC)
Description: as §8, §9

[15] = system: Pseudomonas aeruginosa Tsuchijima; assay: In vitro antibacterial activity (MIC); type: cell-based; details: read-out: minimum inhibitory concentration (MIC)
Description: as §8, §9

[16] = system: Serratia mercescens IFO 3736; assay: In vitro antibacterial activity (MIC); type: cell-based
Description: as §8, §9

[17] = system: Streptococcus pyogenes 65A; assay: In vitro antibacterial activity (MIC); type: cell-based; details: read-out: minimum inhibitory concentration (MIC)
Description: as §8, §9

[18] = system: Klebsiella pneumoniae No. 13; assay: In vitro antibacterial activity (MIC); type: cell-based
Description: as §8, §9

20 strains of bacteria = assay: In vitro antibacterial activity, overall conclusions; type: cell-based; details: in vitro, Table I
Description: as §8

[19] = Proteus mirabilis, P2381, read-out: minimum inhibitory concentration (MIC)
[20] = Staphylococcus aureus No. 50774, read-out: minimum inhibitory concentration (MIC)
[21] = P2503, read-out: minimum inhibitory concentration (MIC)
[22] = Escherichia coli, NIHJJC2, read-out: minimum inhibitory concentration (MIC)
[23] = P2473, read-out: minimum inhibitory concentration (MIC)
[24] = Pseudomonas aeruginosa, NO.12, read-out: minimum inhibitory concentration (MIC)
[25] = Pseudomonas aeruginosa Tsuchijima
[26] = Serratia, IFO3736, read-out: minimum inhibitory concentration (MIC)
[27] = Klebsiella pneumoniae, NO.13, read-out: minimum inhibitory concentration (MIC)
[28] = Staphylococcus aureus 209P JC-1
[29] = P5101, Escherichia coli P-5101, read-out: minimum inhibitory concentration (MIC)

SMILES | ED50 [1] [mg/kg] | ED50 [2] [mg/kg] | ED50 (Escherichia coli P-5101 [3]) [mg/kg] | LD50 at 168 h (in vivo; sc) [mg/kg] | MIC [4] [µg/mL] | MIC (Proteus mirabilis P-2381; [19]) [µg/mL] | MIC [5, 20] [µg/mL] | minimum inhibitory concentration (MIC) (Escherichia coli P-140a) [µg/mL] | MIC [6] [µg/mL] | MIC [7] [µg/mL] | MIC [9] [µg/mL] | MIC (Proteus rettgeri P-2503; [21]) [µg/mL] | MIC [11, 22] [µg/mL] | MIC [12, 23] [µg/mL] | MIC [13] [µg/mL] | MIC [14, 24] [µg/mL] | MIC (Proteus morganii Kono) [µg/mL] | MIC (Shigella flexneri 2a) [µg/mL] | MIC [15, 25] [µg/mL] | MIC [16, 26] [µg/mL] | also measured
CC1(C)S[C@@H]2[C@H](NC(=O)[C@H](NC(=O)c3c[nH]c4nc(N5CCN(C=O)CC5)ncc4c3=O)c3ccccc3)C(=O)N2[C@H]1C(=O)O [Compound B, D-α-[5,8-Dihydro-2-(4-formyl-1-piperazinyl)-5-oxopyrido[2,3-d]pyrimidine-6-carboxamido]-benzylpenicillin sodium salt] | 3.4 | 17.7 | 21 | < 4000 | 12.5 | 3.13 | 0.78 | 12.5 | 1.56 | 1.56 | 6.25 | 6.25 | 6.25 | 6.25 | 0.78 | 6.25 | 3.13 | 3.13 | 1.56 | 12.5 | LD50 at 168 h (in vivo; iv): 2830 mg/kg; MIC ([8]; Staphylococcus aureus, 209P): 0.78 µg/mL; MIC (Escherichia coli P-5101 [10]; Escherichia coli, P5101, read-out: minimum inhibitory concentration (MIC)): 3.13 µg/mL; MIC ([17]; Streptococcus pyogenes, 65A): < 0.1 µg/mL; MIC [18, 27]: 6.25 µg/mL
CN(C)c1ncc2c(=O)c(C(=O)N[C@@H](C(=O)N[C@@H]3C(=O)N4[C@@H]3SC(C)(C)[C@@H]4C(=O)O)c3ccc(O)cc3)c[nH]c2n1 [Compound E, D-α-(5,8-Dihydro-2-dimethylamino-5-oxopyrido[2,3-d]pyrimidine-6-carboxamido)-p-hydroxybenzylpenicillin] | ~10 | 32.4 | 11 | 1070 | 12.5 (≈ 21.5 µM) | 3.13 (≈ 5.38 µM) | 0.78 (≈ 1.34 µM) | 25 (≈ 43 µM) | 1.56 (≈ 2.68 µM) | 0.78 (≈ 1.34 µM) | 6.25 (≈ 10.7 µM) | 6.25 (≈ 10.7 µM) | 6.25 (≈ 10.7 µM) | 3.13 (≈ 5.38 µM) | 0.78 (≈ 1.34 µM) | 3.13 (≈ 5.38 µM) | 6.25 (≈ 10.7 µM) |  | 1.56 (≈ 2.68 µM) | 6.25 (≈ 10.7 µM) | selectivity ratio (in vivo; sc): 33; MIC [8, 28]: 0.78 µg/mL (≈ 1.34 µM); MIC (Escherichia coli P-5101 [10]; [29]): 1.56 µg/mL (≈ 2.68 µM); MIC ([17]; Streptococcus pyogenes 65A): 0.025 µg/mL (≈ 0.043 µM); MIC [18, 27]: 12.5 µg/mL (≈ 21.5 µM)
O=CN1CCN(c2ncc3c(=O)c(C(=O)O)c[nH]c3n2)CC1 [Compound K, 5,8-Dihydro-2-(4-formyl-1-piperazinyl)-5-oxopyrido[2,3-d]pyrimidine-6-carboxylic acid] |  |  |  |  | > 200 |  |  | > 200 | > 50 | > 50 | > 100 |  |  |  | > 50 |  |  | > 100 |  |  | antibacterial activity (in words) (20 strains of bacteria): do not substantially show antibacterial activity; MIC (Proteus mirabilis P-2381; P2381, Proteus mirabilis P-2381, read-out: minimum inhibitory concentration (MIC)): > 50 µg/mL; MIC ([5]; Staphylococcus aureus, NO.50774, read-out: minimum inhibitory concentration (MIC)): > 50 µg/mL; MIC [8, 28]: > 50 µg/mL; MIC (Proteus rettgeri P-2503; P2503, Proteus rettgeri P-2503, read-out: minimum inhibitory concentration (MIC)): > 100 µg/mL; MIC (Escherichia coli P-5101 [10]; [29]): > 100 µg/mL; MIC ([11]; NIHJJC2, Escherichia coli NIHJ JC-2, read-out: minimum inhibitory concentration (MIC)): > 100 µg/mL; MIC ([12]; P2473, Streptococcus faecalis P-2473, read-out: minimum inhibitory concentration (MIC)): > 50 µg/mL; MIC ([14]; Pseudomonas aeruginosa No.12, read-out: minimum inhibitory concentration (MIC)): > 200 µg/mL; MIC (Proteus morganii Kono; Proteus morganii Kono): > 200 µg/mL; MIC ([15]; Pseudomonas aeruginosa): > 200 µg/mL; MIC ([16]; IFO3736, Serratia mercescens IFO 3736, read-out: minimum inhibitory concentration (MIC)): > 100 µg/mL; MIC ([17]; Streptococcus pyogenes 65A): > 100 µg/mL; MIC ([18]; Klebsiella pneumoniae No. 13, read-out: minimum inhibitory concentration (MIC)): > 200 µg/mL
